Measurements published in PubChem BioAssay (NCI).
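Here, GI50 denotes the concentration required for 50% inhibition of growth. At the TGI there is no net growth.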

How the values were obtained:
Test in all cases: NCI tumour cell line growth inhibition, 384-well format
[1] = system: NCI-H522 lung
[2] = system: TK-10 renal
[3] = system: COLO 205 colon
[4] = system: SR leukemia
[5] = system: MDA-MB-231 breast
[6] = system: HCT-116 colon
[7] = system: A549 NSCLC
[8] = system: NCI-H226 lung
[9] = system: CAKI-1 renal
[10] = system: PC-3 prostate
[11] = system: OVCAR-3 ovarian
[12] = system: HT29 colon
[13] = system: NCI-H23 lung
[14] = system: MOLT-4 leukemia
[15] = system: NCI/ADR-RES ovarian
[16] = system: M14 melanoma
[17] = system: OVCAR-8 ovarian
[18] = system: MDA-MB-468 breast
[19] = system: HCT-15 colon
[20] = system: RXF 393 renal
[21] = system: A498 renal
[22] = system: EKVX NSCLC
[23] = system: SN12C renal
[24] = system: SK-MEL-5 melanoma
[25] = system: DU-145 prostate
[26] = system: BT-549 breast
[27] = system: NCI-H460 NSCLC

O=C(CCCCCCNC(=O)c1cnc(N(c2ccccc2)c2ccccc2)nc1)NO
GI50 [1]: 2.14 µM
TGI [1]: 8.63 µM
GI50 [2]: 3.37 µM
TGI [2]: 12.5 µM
GI50 [3]: 2 µM
TGI [3]: 3.9 µM
GI50 [4]: 0.323 µM
TGI [4]: 1.2 µM
GI50 [5]: 2.19 µM
TGI [5]: 6.61 µM
GI50 [6]: 2.79 µM
TGI [6]: 10.5 µM
GI50 [7]: 10.1 µM
TGI [7]: 25 µM
GI50 [8]: 10.7 µM
TGI [8]: 26.2 µM
GI50 [9]: 4.36 µM
TGI [9]: 16.6 µM
GI50 [10]: 2.52 µM
TGI [10]: 8.1 µM
GI50 [11]: 2.01 µM
TGI [11]: 8.19 µM
GI50 [12]: 3.14 µM
TGI [12]: 13.2 µM
GI50 [13]: 4.27 µM
TGI [13]: 21.2 µM
GI50 [14]: 1.34 µM
TGI [14]: 2.62 µM
GI50 [15]: 8.89 µM
TGI [15]: 84.1 µM
GI50 [16]: 3.7 µM
TGI [16]: 14.8 µM
GI50 [17]: 2.12 µM
TGI [17]: 13.9 µM
GI50 [18]: 1.5 µM
TGI [18]: 4.12 µM
GI50 [19]: 13 µM
TGI [19]: 41.6 µM
GI50 [20]: 4.37 µM
TGI [20]: 17.4 µM
GI50 [21]: 3.49 µM
TGI [21]: 16.2 µM
GI50 [22]: 11.3 µM
TGI [22]: 43.8 µM
GI50 [23]: 2.48 µM
TGI [23]: 8.92 µM
GI50 [24]: 2.02 µM
TGI [24]: 4.16 µM
GI50 [25]: 2.18 µM
TGI [25]: 5.88 µM
GI50 [26]: 3.08 µM
TGI [26]: 13.3 µM
GI50 [27]: 2.22 µM
TGI [27]: 11.3 µM
